Results published in BindingDB's records for doi:10.7270/Q2KK9971 (Nmmlsc, 2009).

Molecular target: T1, GTPase KRas [1-37] (Homo sapiens, UniProt G3V5T7)
T1 construct: 1-37
Assay: Ras wild-type GTP-binding inhibitors, SAR follow-up, biochemical, pyrazoline analogs, multiplex bead flow cytometry (AID 2047)
Conditions: not given

T1 sequence (G3V5T7 whole entry): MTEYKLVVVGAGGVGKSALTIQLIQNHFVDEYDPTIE

EC50 [µM]	SMILES
> 30	NS(=O)(=O)c1ccc(N2N=C(c3ccc(Br)cc3)CC2c2ccc(F)cc2)cc1 (stereo unspecified) [4-[5-(4-bromophenyl)-3-(4-fluorophenyl)-3,4-dihydropyrazol-2-yl]benzenesulfonamide]
> 30	COc1ccc(C2CC(c3ccc(C(F)(F)F)cc3)=NN2c2ccc(S(N)(=O)=O)cc2)cc1 (stereo unspecified) [4-[3-(4-methoxyphenyl)-5-[4-(trifluoromethyl)phenyl]-3,4-dihydropyrazol-2-yl]benzenesulfonamide]
> 30	COc1ccc(C2=NN(c3ccc(Cl)cc3)C(c3ccccc3F)C2)cc1 (stereo unspecified) [UNM-0000305863]
> 30	Cc1ccccc1[N+]1=N[C-](c2ccccc2)CC1c1cccc([N+](=O)[O-])c1 (stereo unspecified) [UNM-0000305854]
> 30	COc1ccc(C2CC(c3ccncc3)=NN2c2ccc(S(N)(=O)=O)cc2)cc1 (stereo unspecified)
> 30	COc1ccc(C2=NN(c3cccc(F)c3)C(c3ccc(Cl)cc3)C2)cc1 (stereo unspecified) [3-(4-chlorophenyl)-2-(3-fluorophenyl)-5-(4-methoxyphenyl)-3,4-dihydropyrazole]
> 30	COc1ccc(C2CC(c3ccccc3OC)=NN2c2ccc(S(N)(=O)=O)cc2)cc1 (stereo unspecified)
> 30	COc1ccc(C2CC(c3cccc(C(F)(F)F)c3)=NN2c2ccc(S(N)(=O)=O)cc2)cc1 (stereo unspecified)
> 30	O=S(=O)(c1ccc(N2N=C(c3ccc(Br)cc3)CC2c2ccccc2)cc1)C(F)F (stereo unspecified) [5-(4-bromophenyl)-2-[4-(difluoromethylsulfonyl)phenyl]-3-phenyl-3,4-dihydropyrazole]
> 30	COc1ccc(C2CC(c3ccc(F)cc3)=NN2c2ccccc2)cc1OC (stereo unspecified) [UNM-0000305864]
> 30	COc1ccc(C2CC(C)=NN2c2ccc(S(N)(=O)=O)cc2)cc1 (stereo unspecified) [4-[3-(4-methoxyphenyl)-5-methyl-3,4-dihydropyrazol-2-yl]benzenesulfonamide]
> 30	COc1ccc(C2CC(c3cccc(N(C)C)c3)=NN2c2ccc(S(N)(=O)=O)cc2)cc1 (stereo unspecified)
> 30	COc1ccc(C2CC(c3ccc(F)cc3)=NN2c2cccc(F)c2)cc1OC (stereo unspecified)
> 30	COc1ccc(C2=NN(c3ccccc3)C(c3ccc(Cl)cc3)C2)cc1 (stereo unspecified) [UNM-0000305833]
> 30	FC(F)(F)c1ccccc1C1CC(c2ccc(Br)cc2)=NN1c1ccccc1 (stereo unspecified) [5-(4-bromophenyl)-2-phenyl-3-[2-(trifluoromethyl)phenyl]-3,4-dihydropyrazole]
> 30	COc1ccccc1N1N=C(c2ccccc2)CC1c1ccccc1 (stereo unspecified) [UNM-0000305855]
> 30	NS(=O)(=O)c1ccc(N2N=C(c3ccccc3)CC2c2ccccc2)cc1 (stereo unspecified) [4-(3,5-diphenyl-3,4-dihydropyrazol-2-yl)benzenesulfonamide]
> 30	NS(=O)(=O)c1ccc(N2N=C(c3ccccc3)CC2c2ccc(Cl)cc2)cc1 (stereo unspecified) [4-[3-(4-chlorophenyl)-5-phenyl-3,4-dihydropyrazol-2-yl]benzenesulfonamide]
> 30	Cc1ccc(C2CC(c3ccccc3)=NN2c2ccc(S(N)(=O)=O)cc2)cc1 (stereo unspecified)
> 30	COc1cccc(C2CC(c3ccccc3)=NN2c2ccc(S(N)(=O)=O)cc2)c1 (stereo unspecified) [4-[3-(3-methoxyphenyl)-5-phenyl-3,4-dihydropyrazol-2-yl]benzenesulfonamide]
> 30	CN(C)c1ccc(C2C[C-](c3ccccc3)N=[N+]2c2ccc([N+](=O)[O-])cc2)cc1 (stereo unspecified)
> 30	COc1ccc(C2CC(c3ccc(Br)cc3)=NN2c2ccc(S(N)(=O)=O)cc2)cc1 (stereo unspecified) [UNM-0000306138]

EC50 [µM]	SMILES
> 30	COc1ccc(C2CC(C(C)(C)C)=NN2c2ccc(S(N)(=O)=O)cc2)cc1 (stereo unspecified) [KUC103450N]
> 30	COc1ccccc1C1CC(c2ccccc2)=NN1c1ccccc1 (stereo unspecified)
> 30	COc1ccc(C2CC(c3ccccc3C(F)(F)F)=NN2c2ccc(S(N)(=O)=O)cc2)cc1 (stereo unspecified) [KUC103474N]
> 30	CN(C)c1ccc(C2CC(c3ccc(Cl)cc3)=NN2c2ccccc2)cc1 (stereo unspecified) [UNM-0000305847]
> 30	COc1ccc(-c2cc(-c3ccccc3)nn2-c2ccc(S(N)(=O)=O)cc2)cc1 [4-[5-(4-methoxyphenyl)-3-phenylpyrazol-1-yl]benzenesulfonamide]
> 30	COc1ccc(C2CC(c3ccccc3Cl)=NN2c2ccc(S(N)(=O)=O)cc2)cc1 (stereo unspecified) [4-[5-(2-chlorophenyl)-3-(4-methoxyphenyl)-3,4-dihydropyrazol-2-yl]benzenesulfonamide]
> 30	COc1ccc(C2CC(c3cccc(OC)c3)=NN2c2ccc(S(N)(=O)=O)cc2)cc1 (stereo unspecified) [4-[5-(3-methoxyphenyl)-3-(4-methoxyphenyl)-3,4-dihydropyrazol-2-yl]benzenesulfonamide]
> 30	COc1ccc(C2=NN(c3cccc(F)c3)C(c3ccc(OC)cc3)C2)cc1 (stereo unspecified) [2-(3-fluorophenyl)-3,5-bis(4-methoxyphenyl)-3,4-dihydropyrazole]
> 30	Fc1ccc(C2=NN(c3cccc(Br)c3)C(c3ccccc3)C2)cc1 (stereo unspecified) [2-(3-bromophenyl)-5-(4-fluorophenyl)-3-phenyl-3,4-dihydropyrazole]
> 30	COc1ccc(C2CC(c3ccc(N(C)C)cc3)=NN2c2ccc(S(N)(=O)=O)cc2)cc1 (stereo unspecified) [KUC103422N]
> 30	COc1ccc(C2CC(C3CCCCC3)=NN2c2ccc(S(N)(=O)=O)cc2)cc1 (stereo unspecified) [4-[5-cyclohexyl-3-(4-methoxyphenyl)-3,4-dihydropyrazol-2-yl]benzenesulfonamide]
> 30	Cc1ccc(-c2cc(C(F)(F)F)nn2-c2ccc(S(N)(=O)=O)cc2)cc1 [Celecoxib]
> 30	CN(C)c1ccc(C2CC(c3ccc(F)cc3)=NN2c2ccccc2)cc1 (stereo unspecified) [UNM-0000305866]
> 30	COc1ccc(C2=NN(c3ccc(S(N)(=O)=O)cc3)C(c3ccc(OC)cc3)C2)cc1 (stereo unspecified) [4-[3,5-bis(4-methoxyphenyl)-3,4-dihydropyrazol-2-yl]benzenesulfonamide]
> 30	Clc1ccc(N2N=C(c3ccccc3)CC2c2ccccc2)cc1 (stereo unspecified)
> 30	COc1ccc(C2CC(c3ccsc3)=NN2c2ccc(S(N)(=O)=O)cc2)cc1 (stereo unspecified) [4-[3-(4-methoxyphenyl)-5-thiophen-3-yl-3,4-dihydropyrazol-2-yl]benzenesulfonamide]
> 30	COc1ccc(C2=NN(c3ccc(Cl)c(Cl)c3)C(c3ccc(OC)cc3)C2)cc1 (stereo unspecified) [2-(3,4-dichlorophenyl)-3,5-bis(4-methoxyphenyl)-3,4-dihydropyrazole]
> 30	Cc1ccccc1N1N=C(c2ccccc2)CC1c1ccc(N(C)C)cc1 (stereo unspecified) [N,N-dimethyl-4-[2-(2-methylphenyl)-5-phenyl-3,4-dihydropyrazol-3-yl]aniline]
> 30	COc1ccc(C2=NN(c3ccccc3)C(c3ccc(OC)c(OC)c3C(=O)O)C2)cc1 (stereo unspecified) [UNM-0000305848]
> 30	COc1ccc(C2CC(c3cccs3)=NN2c2ccc(S(N)(=O)=O)cc2)cc1 (stereo unspecified) [KUC103438N]
> 30	COc1ccc(C2CC(c3ccccc3Br)=NN2c2ccc(S(N)(=O)=O)cc2)cc1 (stereo unspecified) [UNM-0000306112]
> 30	FC(F)(F)c1cccc(N2N=C(c3ccc(Cl)cc3)CC2c2ccccc2Cl)c1 (stereo unspecified) [UNM-0000305859]

Same assay, conditions: inactive by the depositor's call

EC50 [µM]	SMILES
17.7	COc1ccc(C2=NN(c3ccccc3)C(c3ccccc3C(F)(F)F)C2)cc1 (stereo unspecified)
0.028	COc1ccc(C2CC(c3ccc(F)cc3)=NN2c2ccc(S(N)(=O)=O)cc2)cc1 (stereo unspecified) [4-[5-(4-fluorophenyl)-3-(4-methoxyphenyl)-3,4-dihydropyrazol-2-yl]benzenesulfonamide]
